What was measured:
Assay type in all cases: in vivo
[1] = tested on: weeds; test: Post-emergence test (greenhouse), activity against weeds; settings: in words
Method: (§1) Solvent: 5 parts by weight of acetone
(§2) Emulsifier: 1 part by weight of alkylaryl polyglycol ether
(§3) To produce a suitable preparation of active compound, 1 part by weight of active compound is mixed with the stated amount of solvent, the stated amount of emulsifier is added and the concentrate is diluted with water to the desired concentration.
(§4) Test plants which have a height of 5-15 cm are sprayed with the preparation of the active compound in such a way as to apply the particular amounts of active compound desired per unit area. The concentration of the spray liquor is chosen so that the particular amounts of active compound desired are applied in 2000 l of water/ha.
(§5) After three weeks, the degree of damage to the plants is rated in % damage in comparison to the development of the untreated control.
(§6) 0%=no action (like untreated control)

[2] = tested on: Poa; test: Pre-emergence test/Greenhouse, Poa; settings: after three weeks
Method in brief: (§7)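 Seeds sown in normal soil were watered about 24 h later with an aqueous emulsion of compound (solvent plus emulsifier), keeping water volume per area constant so dose is set by application rate per unit area. Damage was rated after three weeks as % versus untreated control (0% = no action).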

[3] = tested on: Echinochloa; test: Post-emergence test/greenhouse, Echinochloa; settings: greenhouse, after three weeks
Method: as §1, §2, §3, §4, §5, §6

[4] = tested on: Matricaria; test: Post-emergence test/greenhouse, Matricaria; settings: greenhouse, after three weeks
Method: as §1, §2, §3, §4, §5, §6

[5] = tested on: Amaranthus; test: Post-emergence test/greenhouse, Amaranthus; settings: greenhouse, after three weeks
Method: as §1, §2, §3, §4, §5, §6

[6] = tested on: Lolium; test: Pre-emergence test/Greenhouse, Lolium; settings: after three weeks
Method in brief: as §7

[7] = tested on: Digitaria; test: Post-emergence test/greenhouse, Digitaria; settings: greenhouse, after three weeks
Method: as §1, §2, §3, §4, §5, §6

[8] = tested on: Soya beans; test: Pre-emergence test/Greenhouse, Soya beans; settings: in vivo
Method in brief: as §7

[9] = tested on: Solanum; test: Pre-emergence test/Greenhouse, Solanum; settings: after three weeks
Method in brief: as §7

[10] = tested on: Maize; test: Post-emergence test/greenhouse, Maize; settings: greenhouse, after three weeks
Method: as §1, §2, §3, §4, §5, §6

[11] = tested on: Sorghum; test: Post-emergence test/greenhouse, Sorghum; settings: greenhouse, after three weeks
Method: as §1, §2, §3, §4, §5, §6

[12] = tested on: Lolium; test: Post-emergence test/greenhouse, Lolium; settings: greenhouse, after three weeks
Method: as §1, §2, §3, §4, §5, §6

[13] = tested on: Ambrosia; test: Pre-emergence test/Greenhouse, Ambrosia; settings: after three weeks
Method in brief: as §7

[14] = tested on: Gallium; test: Post-emergence test/greenhouse, Gallium; settings: greenhouse, after three weeks
Method: as §1, §2, §3, §4, §5, §6

[15] = tested on: Maize; test: Pre-emergence test/Greenhouse, Maize; settings: in vivo
Method in brief: as §7

[16] = tested on: weeds; test: Pre-emergence test (greenhouse), activity against weeds; settings: in words
Method in brief: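 Compound formulated in acetone with alkylaryl polyglycol ether emulsifier, diluted in water, and watered onto soil about 24 h after sowing, dosed by application rate per unit area. Damage rated after three weeks as % versus untreated control (0% = no action).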

[17] = tested on: Stellaria; test: Post-emergence test/greenhouse, Stellaria; settings: greenhouse, after three weeks
Method: as §1, §2, §3, §4, §5, §6

[18] = tested on: Sorghum; test: Pre-emergence test/Greenhouse, Sorghum; settings: after three weeks
Method in brief: as §7

[19] = tested on: Matricaria; test: Pre-emergence test/Greenhouse, Matricaria; settings: after three weeks
Method in brief: as §7

| Structure (SMILES) | activity against weeds [1] | degree of damage, Echinochloa ([3]; 60 g of ai./ha) | degree of damage, Matricaria ([4]; 60 g of ai./ha) | degree of damage, Amaranthus ([5]; 60 g of ai./ha) | degree of damage, Digitaria ([7]; 60 g of ai./ha) | degree of damage to the plants (% damage vs untreated control), Soya beans [8] | degree of damage, Maize ([10]; 60 g of ai./ha) | degree of damage, Sorghum ([11]; 60 g of ai./ha) | degree of damage, Lolium ([12]; 60 g of ai./ha) | degree of damage, Gallium ([14]; 60 g of ai./ha) | degree of damage to the plants (% damage vs untreated control), Maize [15] | activity against weeds [16] | degree of damage, Stellaria ([17]; 60 g of ai./ha) | also measured |
| --- | --- | --- | --- | --- | --- | --- | --- | --- | --- | --- | --- | --- | --- | --- |
| CCOc1nn(C(=O)NS(=O)(=O)c2c(C)cccc2C(=O)OC)c(=O)n1C [Example 163] | very strong activity against weeds | 70% | 100% | 100% | 80% | 0% | 60% | 95% | 80% | 95% | 20% | very strong activity against weeds | 95% | degree of damage to the plants (% damage vs untreated control), Poa ([2]; 4 g of ai./ha): 95%; degree of damage to the plants (% damage vs untreated control), Lolium ([6]; 4 g of ai./ha): 80%; degree of damage to the plants (% damage vs untreated control), Solanum ([9]; 4 g of ai./ha): 90%; degree of damage to the plants (% damage vs untreated control), Ambrosia ([13]; 4 g of ai./ha): 80%; degree of damage to the plants (% damage vs untreated control), Sorghum ([18]; 4 g of ai./ha): 60% |
| COC(=O)c1scc(C)c1S(=O)(=O)NC(=O)n1nc(OC)n(C)c1=O [Example 31] | very strong activity against weeds | – | – | – | – | – | – | – | – | – | 10% | very strong activity against weeds | – | degree of damage to the plants (% damage vs untreated control), Poa ([2]; 15 g of ai./ha): 95%; degree of damage, Echinochloa ([3]; 30 g of ai./ha): 95%; degree of damage, Matricaria ([4]; 30 g of ai./ha): 100%; degree of damage, Amaranthus ([5]; 30 g of ai./ha): 100%; degree of damage to the plants (% damage vs untreated control), Lolium ([6]; 15 g of ai./ha): 95%; degree of damage, Digitaria ([7]; 30 g of ai./ha): 95%; degree of damage to the plants (% damage vs untreated control), Solanum ([9]; 15 g of ai./ha): 95%; degree of damage, Maize ([10]; 30 g of ai./ha): 5%; degree of damage, Sorghum ([11]; 30 g of ai./ha): 80%; degree of damage, Lolium ([12]; 30 g of ai./ha): 90%; degree of damage to the plants (% damage vs untreated control), Ambrosia ([13]; 15 g of ai./ha): 95%; degree of damage, Gallium ([14]; 30 g of ai./ha): 80%; degree of damage to the plants (% damage vs untreated control), Matricaria ([19]; 15 g of ai./ha): 95%; degree of damage, Stellaria ([17]; 30 g of ai./ha): 95%; degree of damage to the plants (% damage vs untreated control), Sorghum ([18]; 15 g of ai./ha): 80% |
| COCc1nn(C(=O)NS(=O)(=O)c2c(C)csc2C(=O)OC)c(=O)n1C1CC1 [Example 28] | very strong activity against weeds | 80% | 90% | 100% | 90% | – | 10% | 95% | 60% | 80% | 0% | very strong activity against weeds | 100% | degree of damage to the plants (% damage vs untreated control), Poa ([2]; 60 g of ai./ha): 95%; degree of damage to the plants (% damage vs untreated control), Lolium ([6]; 60 g of ai./ha): 95%; degree of damage to the plants (% damage vs untreated control), Solanum ([9]; 60 g of ai./ha): 95%; degree of damage to the plants (% damage vs untreated control), Ambrosia ([13]; 60 g of ai./ha): 95%; degree of damage to the plants (% damage vs untreated control), Matricaria ([19]; 60 g of ai./ha): 95%; degree of damage to the plants (% damage vs untreated control), Sorghum ([18]; 60 g of ai./ha): 95% |
| CCOc1nn(C(=O)NS(=O)(=O)c2c(C)cccc2C(=O)OC(C)C)c(=O)n1C [Example 44] | very strong activity against weeds | 90% | 95% | 100% | 60% | 0% | 50% | 100% | 70% | 95% | 30% | very strong activity against weeds | – | degree of damage to the plants (% damage vs untreated control), Poa ([2]; 8 g of ai./ha): 95%; degree of damage to the plants (% damage vs untreated control), Lolium ([6]; 8 g of ai./ha): 95%; degree of damage to the plants (% damage vs untreated control), Solanum ([9]; 8 g of ai./ha): 95%; degree of damage to the plants (% damage vs untreated control), Ambrosia ([13]; 8 g of ai./ha): 95%; degree of damage to the plants (% damage vs untreated control), Matricaria ([19]; 8 g of ai./ha): 95%; degree of damage to the plants (% damage vs untreated control), Sorghum ([18]; 8 g of ai./ha): 95% |
| COC(=O)c1scc(C)c1S(=O)(=O)NC(=O)n1nc(SC)n(C)c1=O [Example 6] | very strong activity against weeds | – | – | – | – | – | – | – | – | – | 0% | very strong activity against weeds | – | degree of damage to the plants (% damage vs untreated control), Poa ([2]; 125 g of ai./ha): 95%; degree of damage, Echinochloa ([3]; 400 g of ai./ha): 95%; degree of damage, Matricaria ([4]; 400 g of ai./ha): 100%; degree of damage, Amaranthus ([5]; 400 g of ai./ha): 100%; degree of damage to the plants (% damage vs untreated control), Lolium ([6]; 125 g of ai./ha): 95%; degree of damage, Digitaria ([7]; 400 g of ai./ha): 90%; degree of damage to the plants (% damage vs untreated control), Solanum ([9]; 125 g of ai./ha): 95%; degree of damage, Maize ([10]; 400 g of ai./ha): 20%; degree of damage, Sorghum ([11]; 400 g of ai./ha): 80%; degree of damage, Lolium ([12]; 400 g of ai./ha): 95%; degree of damage to the plants (% damage vs untreated control), Ambrosia ([13]; 125 g of ai./ha): 95%; degree of damage, Gallium ([14]; 400 g of ai./ha): 90%; degree of damage to the plants (% damage vs untreated control), Matricaria ([19]; 125 g of ai./ha): 95%; degree of damage, Stellaria ([17]; 400 g of ai./ha): 100%; degree of damage to the plants (% damage vs untreated control), Sorghum ([18]; 125 g of ai./ha): 95% |
| CCOc1nn(C(=O)NS(=O)(=O)c2c(C)csc2C(=O)OC)c(=O)n1C1CC1 [Example 30] | very strong activity against weeds | 70% | 100% | 100% | 90% | – | 15% | 95% | 60% | 85% | 0% | very strong activity against weeds | 100% | degree of damage to the plants (% damage vs untreated control), Poa ([2]; 30 g of ai./ha): 95%; degree of damage to the plants (% damage vs untreated control), Lolium ([6]; 30 g of ai./ha): 95%; degree of damage to the plants (% damage vs untreated control), Solanum ([9]; 30 g of ai./ha): 95%; degree of damage to the plants (% damage vs untreated control), Ambrosia ([13]; 30 g of ai./ha): 95%; degree of damage to the plants (% damage vs untreated control), Matricaria ([19]; 30 g of ai./ha): 95%; degree of damage to the plants (% damage vs untreated control), Sorghum ([18]; 30 g of ai./ha): 80% |
